# Literature values in patent US20240248099A1, “BIOMARKERS FOR AGE-RELATED MACULAR DEGENERATION” (BELITE BIO, LLC, priority 2021, published 2024).
# Target: T1, RBP4 (Homo sapiens, UniProt P02753)
# T1 construct: host or cells: serum of AMD patients (endogenous circulating protein)
smiles,measurement,setting,value
CC1=C(/C=C/C(C)=C/C=C/C(C)=C/C(=O)Nc2ccc(O)cc2)C(C)(C)CCC1 [fenretinide],incidence of choroidal neovascularization onset,"246 AMD patients with only geographic atrophy, 100 mg or 300 mg fenretinide or placebo, 2 years, especially in the higher dose group",reduction in the incidence of choroidal neovascularization onset
same,"growth rate of geographic atrophy, overall cohort","overall cohort, insufficient number of subjects achieving serum RBP4 less than 1 μM",no statistically significant retardation of the growth rate of geographic atrophy
same,rate of geographic atrophy progression versus serum RBP4 level,patients who achieved RBP4 levels below 1 μM (approximately 20 μg/ml) after fenretinide treatment,a lower serum RBP4 level was correlated with a slower rate of geographic atrophy progression
